Assay results from patent publication US10030020B2, “Spirocycle compounds and methods of making and using same” (Abide Therapeutics, Inc., priority 2016, dated 2018).

Assays:
FAAH [1] = target: T1, FAAH (Mus musculus (Mouse), UniProt O08914); experiment: In vitro competitive activity-based protein profiling (mouse brain membrane fraction or cell lysates), FAAH band; type: biochemical; conditions: mouse proteome; for IC50: competitive ABPP; for inhibition at 1 µM: read-out: FAAH % Inh 1 μM (mouse)
T1 sequence (O08914 whole entry): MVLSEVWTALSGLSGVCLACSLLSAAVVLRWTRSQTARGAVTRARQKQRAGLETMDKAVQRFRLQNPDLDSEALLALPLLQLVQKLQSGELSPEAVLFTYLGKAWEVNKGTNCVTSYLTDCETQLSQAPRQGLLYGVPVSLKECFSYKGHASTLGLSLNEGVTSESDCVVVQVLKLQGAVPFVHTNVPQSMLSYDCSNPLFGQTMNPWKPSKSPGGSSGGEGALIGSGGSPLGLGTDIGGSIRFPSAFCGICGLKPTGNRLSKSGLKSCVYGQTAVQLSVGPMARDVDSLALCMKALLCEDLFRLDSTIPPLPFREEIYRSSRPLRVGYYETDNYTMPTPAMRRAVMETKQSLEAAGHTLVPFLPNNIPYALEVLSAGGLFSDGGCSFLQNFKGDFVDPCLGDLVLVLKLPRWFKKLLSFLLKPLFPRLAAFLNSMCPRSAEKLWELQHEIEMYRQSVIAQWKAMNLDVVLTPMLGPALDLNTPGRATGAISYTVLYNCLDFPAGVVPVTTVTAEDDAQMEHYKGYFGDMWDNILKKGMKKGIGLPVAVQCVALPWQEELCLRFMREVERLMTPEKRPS
How it was run: (§1)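 Competitive ABPP: proteome 1.0 mg/mL protein + inhibitor, 30 min, 37° C; FP-Rh probe (stock 50 μM in DMSO) added, 30 min, 37° C; SDS quench, SDS-PAGE, fluorescent band intensity read.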

FAAH [2] = target: T1, FAAH; experiment: Mouse brain proteomes from inhibitor treated mice (oral gavage, sacrificed 4 h after administration, ABPP analysis), FAAH; type: in vivo, mouse (C57Bl/6J); conditions: 5 mg/kg oral gavage
Experimental: (§2) Preparation of Mouse Brain Proteomes from Inhibitor Treated Mice.
(§3) Inhibitors were administered to wild-type C57Bl/6J by oral gavage in a vehicle, e.g. PEG400/Ethanol/PBS (7/2/1). Each animal was sacrificed 4 h following administration and brain proteomes were prepared and analyzed according to previously established methods (See Niphakis, M. J., et al. (2011) ACS Chem. Neurosci. and Long, J. Z., et al. Nat. Chem. Biol. 5:37-44). Data from this assay is shown in Table 2 (% inhibition at 5 mg/kg).

MAGL [3] = target: T2, MAGL (Mus musculus (Mouse), UniProt O35678); experiment: In vitro competitive activity-based protein profiling (mouse brain membrane fraction or cell lysates), MAGL band; type: biochemical; conditions: mouse proteome; for IC50: competitive ABPP; for inhibition at 1 µM: read-out: MAGL % Inh 1 μM (mouse)
T2 sequence (O35678 whole entry): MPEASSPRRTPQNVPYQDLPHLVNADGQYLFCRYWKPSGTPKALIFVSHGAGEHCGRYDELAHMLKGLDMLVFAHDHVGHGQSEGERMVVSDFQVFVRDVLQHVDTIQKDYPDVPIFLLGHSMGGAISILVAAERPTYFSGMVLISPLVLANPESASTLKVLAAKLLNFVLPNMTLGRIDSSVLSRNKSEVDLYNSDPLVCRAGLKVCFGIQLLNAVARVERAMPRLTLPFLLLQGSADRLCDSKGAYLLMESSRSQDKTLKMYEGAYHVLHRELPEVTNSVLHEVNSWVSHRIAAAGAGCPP
Experimental: In Vitro Competitive Activity-Based Protein Profiling.
Proteomes (mouse brain membrane fraction or cell lysates) (50 μL, 1.0 mg/mL total protein concentration) were preincubated with varying concentrations of inhibitors at 37° C. After 30 min, FP—Rh (1.0 μL, 50 μM in DMSO) was added and the mixture was incubated for another 30 min at 37° C. Reactions were quenched with SDS loading buffer (50 μL-4×) and run on SDS-PAGE.

MAGL [4] = target: T2, MAGL; experiment: Mouse brain proteomes from inhibitor treated mice (oral gavage, sacrificed 4 h after administration, ABPP analysis); type: in vivo, mouse (C57Bl/6J); conditions: 5 mg/kg oral gavage
Experimental: as §2, §3

ABHD6 [5] = target: T3, ABHD6 (Mus musculus (Mouse), UniProt Q8R2Y0); experiment: Mouse brain proteomes from inhibitor treated mice (oral gavage, sacrificed 4 h after administration, ABPP analysis), ABHD6; type: in vivo, mouse (C57Bl/6J); conditions: 5 mg/kg oral gavage
T3 sequence (Q8R2Y0 whole entry): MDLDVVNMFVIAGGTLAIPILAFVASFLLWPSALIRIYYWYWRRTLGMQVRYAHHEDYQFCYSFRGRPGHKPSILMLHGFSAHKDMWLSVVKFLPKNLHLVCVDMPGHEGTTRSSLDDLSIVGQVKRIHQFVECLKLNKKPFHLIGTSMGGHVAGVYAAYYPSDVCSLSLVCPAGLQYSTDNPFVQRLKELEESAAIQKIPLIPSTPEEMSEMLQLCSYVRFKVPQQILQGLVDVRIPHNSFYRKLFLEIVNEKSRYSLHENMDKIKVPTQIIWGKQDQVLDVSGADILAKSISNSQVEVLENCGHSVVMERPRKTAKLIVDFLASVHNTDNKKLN
Experimental: as §2, §3

ABHD6 [6] = target: T3, ABHD6; experiment: In vitro competitive activity-based protein profiling (mouse brain membrane fraction or cell lysates), ABHD6 band; type: biochemical; conditions: mouse proteome; for IC50: competitive ABPP; for inhibition at 1 µM: read-out: ABHD6 % Inh 1 μM (mouse)
How it was run: as §1

## COc1c(Cl)cccc1CN1CCCC12CCN(C(=O)OC(C(F)(F)F)C(F)(F)F)CC2 [Example 10, 1,1,1,3,3,3-Hexafluoropropan-2-yl 1-(3-chloro-2-methoxybenzyl)-1,8-diazaspiro[4.5]decane-8-carboxylate]
FAAH [1]
  IC50: > 1000 nM
FAAH [2]
  FAAH % Inh 5 mg/kg (mouse): ## (## is equal to or greater than 25% but less than 75%)
MAGL [3]
  IC50: < 100 nM
MAGL [4]
  MAGL % Inh 5 mg/kg (mouse): ### (### is ≥75%)
ABHD6 [5]
  ABHD6 % Inh 5 mg/kg (mouse): # (# is <25%)
ABHD6 [6]
  IC50: > 1000 nM

## O=C(OC(C(F)(F)F)C(F)(F)F)N1CCC2(CCN(Cc3ccc(Cl)cc3N3CCCC3)C2)CC1 [Example 17, 1,1,1,3,3,3-Hexafluoropropan-2-yl 2-(4-chloro-2-(pyrrolidin-1-yl)benzyl)-2,8-diazaspiro[4.5]decane-8-carboxylate]
FAAH [1]
  inhibition at 1 µM: < 25%
  IC50: > 1000 nM
FAAH [2]
  FAAH % Inh 5 mg/kg (mouse): # (# is <25%)
MAGL [3]
  inhibition at 1 µM: > 75%
  IC50: < 100 nM
MAGL [4]
  MAGL % Inh 5 mg/kg (mouse): ## (## is equal to or greater than 25% but less than 75%)
ABHD6 [5]
  ABHD6 % Inh 5 mg/kg (mouse): # (# is <25%)
ABHD6 [6]
  inhibition at 1 µM: ≥ 75%
  IC50: > 1000 nM

## O=C(OC(C(F)(F)F)C(F)(F)F)N1CCC2(CCN(Cc3c(N4CC5COCC5C4)cccc3C(F)(F)F)C2)CC1 (stereo not drawn) [Example 18, 1,1,1,3,3,3-Hexafluoropropan-2-yl 2-(2-(tetrahydro-1H-furo[3,4-c]pyrrol-5(3H)-yl)-6-(trifluoromethyl)benzyl)-2,8-diazaspiro[4.5]decane-8-carboxylate]
FAAH [1]
  inhibition at 1 µM: < 25%
  IC50: > 1000 nM
FAAH [2]
  FAAH % Inh 5 mg/kg (mouse): # (# is <25%)
MAGL [3]
  inhibition at 1 µM: > 75%
  IC50: < 100 nM
MAGL [4]
  MAGL % Inh 5 mg/kg (mouse): ## (## is equal to or greater than 25% but less than 75%)
ABHD6 [5]
  ABHD6 % Inh 5 mg/kg (mouse): # (# is <25%)
ABHD6 [6]
  inhibition at 1 µM: 25 to 75%
  IC50: > 1000 nM

## O=C(OC(C(F)(F)F)C(F)(F)F)N1CCC2(CCCN2Cc2ccc(Cl)cc2N2CCN(CCF)CC2)CC1 [Example 19, 1,1,1,3,3,3-Hexafluoropropan-2-yl 1-(4-chloro-2-(4-(2-fluoroethyl)piperazin-1-yl)benzyl)-1,8-diazaspiro[4.5]decane-8-carboxylate]
FAAH [1]
  IC50: > 1000 nM
FAAH [2]
  FAAH % Inh 5 mg/kg (mouse): # (# is <25%)
MAGL [3]
  IC50: < 100 nM
MAGL [4]
  MAGL % Inh 5 mg/kg (mouse): ## (## is equal to or greater than 25% but less than 75%)
ABHD6 [5]
  ABHD6 % Inh 5 mg/kg (mouse): # (# is <25%)
ABHD6 [6]
  IC50: > 1000 nM

## O=C(OC(C(F)(F)F)C(F)(F)F)N1CCC2(CCN(Cc3ccc(Cl)cc3N3CCOCC3)C2)CC1 [Example 21, 1,1,1,3,3,3-Hexafluoropropan-2-yl 2-(4-chloro-2-morpholinobenzyl)-2,8-diazaspiro[4.5]decane-8-carboxylate]
FAAH [1]
  inhibition at 1 µM: < 25%
  IC50: > 1000 nM
FAAH [2]
  FAAH % Inh 5 mg/kg (mouse): # (# is <25%)
MAGL [3]
  inhibition at 1 µM: > 75%
  IC50: < 100 nM
MAGL [4]
  MAGL % Inh 5 mg/kg (mouse): ### (### is ≥75%)
ABHD6 [5]
  ABHD6 % Inh 5 mg/kg (mouse): ## (## is equal to or greater than 25% but less than 75%)
ABHD6 [6]
  inhibition at 1 µM: ≥ 75%
  IC50: 100 to 1000 nM

## O=C(OC(C(F)(F)F)C(F)(F)F)N1CCC2(CCN(Cc3ccc(C(F)(F)F)cc3N3CCOCC3)C2)CC1 [Example 22, 1,1,1,3,3,3-Hexafluoropropan-2-yl 2-(2-morpholino-4-(trifluoromethyl)benzyl)-2,8-diazaspiro[4.5]decane-8-carboxylate]
FAAH [1]
  inhibition at 1 µM: < 25%
  IC50: > 1000 nM
FAAH [2]
  FAAH % Inh 5 mg/kg (mouse): # (# is <25%)
MAGL [3]
  inhibition at 1 µM: > 75%
  IC50: < 100 nM
MAGL [4]
  MAGL % Inh 5 mg/kg (mouse): ### (### is ≥75%)
ABHD6 [5]
  ABHD6 % Inh 5 mg/kg (mouse): # (# is <25%)
ABHD6 [6]
  inhibition at 1 µM: ≥ 75%
  IC50: 100 to 1000 nM

## O=C(OC(C(F)(F)F)C(F)(F)F)N1CCC2(CCN(Cc3ccc(C(F)(F)F)cc3N3CCCCC3)C2)CC1 [Example 23, 1,1,1,3,3,3-Hexafluoropropan-2-yl 2-(2-(piperidin-1-yl)-4-(trifluoromethyl)benzyl)-2,8-diazaspiro[4.5]decane-8-carboxylate]
FAAH [1]
  inhibition at 1 µM: < 25%
  IC50: > 1000 nM
FAAH [2]
  FAAH % Inh 5 mg/kg (mouse): # (# is <25%)
MAGL [3]
  inhibition at 1 µM: > 75%
  IC50: < 100 nM
MAGL [4]
  MAGL % Inh 5 mg/kg (mouse): ## (## is equal to or greater than 25% but less than 75%)
ABHD6 [5]
  ABHD6 % Inh 5 mg/kg (mouse): # (# is <25%)
ABHD6 [6]
  inhibition at 1 µM: < 25%
  IC50: > 1000 nM

## O=C(OC(C(F)(F)F)C(F)(F)F)N1CCC2(CCN(Cc3ccc(Cl)cc3N3CCCCC3)C2)CC1 [Example 24, 1,1,1,3,3,3-Hexafluoropropan-2-yl 2-(4-chloro-2-(piperidin-1-yl)benzyl)-2,8-diazaspiro[4.5]decane-8-carboxylate]
FAAH [1]
  inhibition at 1 µM: < 25%
  IC50: > 1000 nM
FAAH [2]
  FAAH % Inh 5 mg/kg (mouse): # (# is <25%)
MAGL [3]
  inhibition at 1 µM: > 75%
  IC50: < 100 nM
MAGL [4]
  MAGL % Inh 5 mg/kg (mouse): ### (### is ≥75%)
ABHD6 [5]
  ABHD6 % Inh 5 mg/kg (mouse): # (# is <25%)
ABHD6 [6]
  inhibition at 1 µM: < 25%
  IC50: > 1000 nM

## O=C(OC(C(F)(F)F)C(F)(F)F)N1CCC2(CCN(Cc3ccc(Cl)cc3N3CC4COCC4C3)C2)CC1 (stereo not drawn) [Example 25, 1,1,1,3,3,3-Hexafluoropropan-2-yl 2-(4-chloro-2-(tetrahydro-1H-furo[3,4-c]pyrrol-5(3H)-yl)benzyl)-2,8-diazaspiro[4.5]decane-8-carboxylate]
FAAH [1]
  inhibition at 1 µM: < 25%
  IC50: > 1000 nM
FAAH [2]
  FAAH % Inh 5 mg/kg (mouse): # (# is <25%)
MAGL [3]
  inhibition at 1 µM: > 75%
  IC50: < 100 nM
MAGL [4]
  MAGL % Inh 5 mg/kg (mouse): ## (## is equal to or greater than 25% but less than 75%)
ABHD6 [5]
  ABHD6 % Inh 5 mg/kg (mouse): # (# is <25%)
ABHD6 [6]
  inhibition at 1 µM: ≥ 75%
  IC50: 100 to 1000 nM

## O=C(OC(C(F)(F)F)C(F)(F)F)N1CCC2(CCN(Cc3ccc(C(F)(F)F)cc3N3CC4COCC4C3)C2)CC1 (stereo not drawn) [Example 26, 1,1,1,3,3,3-Hexafluoropropan-2-yl 2-(2-(tetrahydro-1H-furo[3,4-c]pyrrol-5(3H)-yl)-4-(trifluoromethyl)benzyl)-2,8-diazaspiro[4.5]decane-8-carboxylate]
FAAH [1]
  inhibition at 1 µM: < 25%
  IC50: > 1000 nM
FAAH [2]
  FAAH % Inh 5 mg/kg (mouse): # (# is <25%)
MAGL [3]
  inhibition at 1 µM: > 75%
  IC50: < 100 nM
MAGL [4]
  MAGL % Inh 5 mg/kg (mouse): ## (## is equal to or greater than 25% but less than 75%)
ABHD6 [5]
  ABHD6 % Inh 5 mg/kg (mouse): # (# is <25%)
ABHD6 [6]
  inhibition at 1 µM: ≥ 75%
  IC50: 100 to 1000 nM

## O=C(OC(C(F)(F)F)C(F)(F)F)N1CCC2(CCCN2Cc2cccc(OCCF)c2)CC1 [Example 27, 1,1,1,3,3,3-Hexafluoropropan-2-yl 1-(3-(2-fluoroethoxy)benzyl)-1,8-diazaspiro[4.5]decane-8-carboxylate]
FAAH [1]
  IC50: > 1000 nM
FAAH [2]
  FAAH % Inh 5 mg/kg (mouse): # (# is <25%)
MAGL [3]
  IC50: 100 to 1000 nM
MAGL [4]
  MAGL % Inh 5 mg/kg (mouse): ### (### is ≥75%)
ABHD6 [5]
  ABHD6 % Inh 5 mg/kg (mouse): # (# is <25%)
ABHD6 [6]
  IC50: > 1000 nM

## O=C(OC(C(F)(F)F)C(F)(F)F)N1CCC2(CCCN2Cc2ccc(Cl)c(OCCF)c2)CC1 [Example 28, 1,1,1,3,3,3-Hexafluoropropan-2-yl 1-(4-chloro-3-(2-fluoroethoxy)benzyl)-1,8-diazaspiro[4.5]decane-8-carboxylate]
FAAH [1]
  IC50: > 1000 nM
FAAH [2]
  FAAH % Inh 5 mg/kg (mouse): # (# is <25%)
MAGL [3]
  IC50: < 100 nM
MAGL [4]
  MAGL % Inh 5 mg/kg (mouse): ### (### is ≥75%)
ABHD6 [5]
  ABHD6 % Inh 5 mg/kg (mouse): # (# is <25%)
ABHD6 [6]
  IC50: > 1000 nM
